From patent US10004701B2, “Methods and compositions for treating infection” (UNIVERSITY OF ROCHESTER, priority 2012, dated 2018)
Structures can show the parent of a compound that is named as a salt. Where two headings read alike, the source gives them in different places.

Experiments:
Assay in all cases: AK assay 384-well format, Prestwick library screening
[1] = tested on: E. cloacae; assay type: cell-based, Enterobacter cloacae; conditions: 50 μM final drug concentration; for fold induction at 50 µM: Enterobacter cloacae, 3 h
[2] = tested on: S. aureus strain USA300-0114; assay type: cell-based, Staphylococcus aureus; conditions: 50 μM final drug concentration; for fold induction at 50 µM: Staphylococcus aureus, USA300, 3 h
[3] = tested on: K. pneumoniae; assay type: cell-based, Klebsiella pneumoniae; conditions: 50 μM final drug concentration; for fold induction at 50 µM: Klebsiella pneumoniae, 3 h
[4] = tested on: A. baumannii strain 98-37-09; assay type: cell-based, Acinetobacter baumannii; conditions: 50 μM final drug concentration; for fold induction at 50 µM: Acinetobacter baumannii, 983709, 3 h
[5] = tested on: E. coli; assay type: cell-based, Escherichia coli; conditions: 50 μM final drug concentration; for fold induction at 50 µM: Escherichia coli, 3 h
[6] = tested on: P. aeruginosa; assay type: cell-based, Pseudomonas aeruginosa; conditions: 50 μM final drug concentration; for fold induction at 50 µM: Pseudomonas aeruginosa, 3 h
[7] = tested on: E. faecium; assay type: cell-based, Enterococcus faecium; conditions: 50 μM final drug concentration; for fold induction at 50 µM: Enterococcus faecium, 3 h
[8] = planktonic, cutoff for positive-scoring molecules 3-fold increase
[9] = 384-well format, cutoff for positive-scoring molecules 3-fold increase, read-out: AK-based Prestwick Library Screening Results, E. cloacae (increase in extracellular AK activity)
[10] = 384-well format, cutoff for positive-scoring molecules 3-fold increase, read-out: AK-based Prestwick Library Screening Results, S. aureus (increase in extracellular AK activity)
[11] = 384-well format, cutoff for positive-scoring molecules 3-fold increase, read-out: AK-based Prestwick Library Screening Results, K. pneumoniae (increase in extracellular AK activity)
[12] = 384-well format, cutoff for positive-scoring molecules 3-fold increase, read-out: AK-based Prestwick Library Screening Results, A. baumannii (increase in extracellular AK activity)
[13] = 384-well format, cutoff for positive-scoring molecules 3-fold increase, read-out: AK-based Prestwick Library Screening Results, E. coli (increase in extracellular AK activity)
[14] = 384-well format, cutoff for positive-scoring molecules 3-fold increase, read-out: AK-based Prestwick Library Screening Results, P. aeruginosa (increase in extracellular AK activity)
[15] = 384-well format, cutoff for positive-scoring molecules 3-fold increase, read-out: AK-based Prestwick Library Screening Results, E. faecium (increase in extracellular AK activity)
[16] = planktonic E. cloacae, 384-well, cutoff for positive-scoring molecules 3-fold increase, read-out: AK-based Prestwick Library Screening Results: E. cloacae (increase in extracellular AK activity)
[17] = planktonic S. aureus, 384-well, cutoff for positive-scoring molecules 3-fold increase, read-out: AK-based Prestwick Library Screening Results: S. aureus (increase in extracellular AK activity)
[18] = planktonic K. pneumoniae, 384-well, cutoff for positive-scoring molecules 3-fold increase, read-out: AK-based Prestwick Library Screening Results: K. pneumoniae (increase in extracellular AK activity)
[19] = planktonic A. baumannii, 384-well, cutoff for positive-scoring molecules 3-fold increase, read-out: AK-based Prestwick Library Screening Results: A. baumannii (increase in extracellular AK activity)
[20] = planktonic E. coli, 384-well, cutoff for positive-scoring molecules 3-fold increase, read-out: AK-based Prestwick Library Screening Results: E. coli (increase in extracellular AK activity)
[21] = planktonic P. aeruginosa, 384-well, cutoff for positive-scoring molecules 3-fold increase, read-out: AK-based Prestwick Library Screening Results: P. aeruginosa (increase in extracellular AK activity)
[22] = planktonic E. faecium, 384-well, cutoff for positive-scoring molecules 3-fold increase, read-out: AK-based Prestwick Library Screening Results: E. faecium (increase in extracellular AK activity)
[23] = planktonic, cutoff for positive 3-fold increase, read-out: AK-based Prestwick Library Screening Results, E. cloacae (fold increase in extracellular AK activity)
[24] = planktonic, cutoff for positive 3-fold increase, read-out: AK-based Prestwick Library Screening Results, S. aureus (fold increase in extracellular AK activity)
[25] = planktonic, cutoff for positive 3-fold increase, read-out: AK-based Prestwick Library Screening Results, K. pneumoniae (fold increase in extracellular AK activity)
[26] = planktonic, cutoff for positive 3-fold increase, read-out: AK-based Prestwick Library Screening Results, A. baumannii (fold increase in extracellular AK activity)
[27] = planktonic, cutoff for positive 3-fold increase, read-out: AK-based Prestwick Library Screening Results, P. aeruginosa (fold increase in extracellular AK activity)
[28] = planktonic, cutoff for positive 3-fold increase, read-out: AK-based Prestwick Library Screening Results, E. faecium (fold increase in extracellular AK activity)

CC(C)(C(=O)c1cccnc1)c1cccnc1 [Metyrapone]
fold induction at 50 µM ([1]; planktonic, cutoff for positive-scoring molecules 3-fold increase, read-out: AK-based Prestwick Library Screening Results, E. cloacae (fold increase in extracellular AK activity)): 1.2 | fold induction at 50 µM ([2]; planktonic, cutoff for positive-scoring molecules 3-fold increase, read-out: AK-based Prestwick Library Screening Results, S. aureus (fold increase in extracellular AK activity)): 0.8 | fold induction at 50 µM ([3]; planktonic, cutoff for positive-scoring molecules 3-fold increase, read-out: AK-based Prestwick Library Screening Results, K. pneumoniae (fold increase in extracellular AK activity)): 0.7 | fold induction at 50 µM ([4]; planktonic, cutoff for positive-scoring molecules 3-fold increase, read-out: AK-based Prestwick Library Screening Results, A. baumannii (fold increase in extracellular AK activity)): 1 | fold induction at 50 µM ([5]; planktonic, cutoff for positive-scoring molecules 3-fold increase, read-out: AK-based Prestwick Library Screening Results, E. coli (fold increase in extracellular AK activity)): 0.9 | fold induction at 50 µM ([6]; planktonic, cutoff for positive-scoring molecules 3-fold increase, read-out: AK-based Prestwick Library Screening Results, P. aeruginosa (fold increase in extracellular AK activity)): 1 | fold induction at 50 µM ([7]; planktonic, cutoff for positive-scoring molecules 3-fold increase, read-out: AK-based Prestwick Library Screening Results, E. faecium (fold increase in extracellular AK activity)): 0.8

C[C@@]1(O)CCOC(=O)C1 [Mevalonic-D, L acid lactone]
AK-based Prestwick Library Screening Results, E. cloacae (fold increase in extracellular AK activity) [1, 8]: 0.9 | AK-based Prestwick Library Screening Results, S. aureus (fold increase in extracellular AK activity) [2, 8]: 0.9 | AK-based Prestwick Library Screening Results, K. pneumoniae (fold increase in extracellular AK activity) [3, 8]: 0.8 | AK-based Prestwick Library Screening Results, A. baumannii (fold increase in extracellular AK activity) [4, 8]: 0.9 | AK-based Prestwick Library Screening Results, E. coli (fold increase in extracellular AK activity) [5, 8]: 1.0 | AK-based Prestwick Library Screening Results, P. aeruginosa (fold increase in extracellular AK activity) [6, 8]: 0.8 | AK-based Prestwick Library Screening Results, E. faecium (fold increase in extracellular AK activity) [7, 8]: 1.0

Cc1cccc(C)c1OCC(C)N (stereo not shown) [Mexiletine hydrochloride]
fold induction at 50 µM [1, 9]: 0.7 | fold induction at 50 µM [2, 10]: 0.7 | fold induction at 50 µM [3, 11]: 0.6 | fold induction at 50 µM [4, 12]: 0.5 | fold induction at 50 µM [5, 13]: 0.6 | fold induction at 50 µM [6, 14]: 0.7 | fold induction at 50 µM [7, 15]: 0.9

CN1CCN2c3ccccc3Cc3ccccc3C2C1 (stereo not shown) [Mianserine hydrochloride]
fold induction at 50 µM [1, 9]: 0.7 | fold induction at 50 µM [2, 10]: 0.7 | fold induction at 50 µM [3, 11]: 0.6 | fold induction at 50 µM [4, 12]: 0.8 | fold induction at 50 µM [5, 13]: 0.7 | fold induction at 50 µM [6, 14]: 0.8 | fold induction at 50 µM [7, 15]: 0.9

Clc1ccc(COC(Cn2ccnc2)c2ccc(Cl)cc2Cl)c(Cl)c1 (stereo not shown) [Miconazole]
fold induction at 50 µM [1, 16]: 1.6 | fold induction at 50 µM [2, 17]: 2.2 | fold induction at 50 µM [3, 18]: 1.4 | fold induction at 50 µM [4, 19]: 4.7 | fold induction at 50 µM [5, 20]: 1.4 | fold induction at 50 µM [6, 21]: 1.2 | fold induction at 50 µM [7, 22]: 2.5

COc1ccc(OC)c(C(O)CNC(=O)CN)c1 (stereo not shown) [Midodrine hydrochloride]
fold induction at 50 µM [1, 9]: 1 | fold induction at 50 µM [2, 10]: 0.9 | fold induction at 50 µM [3, 11]: 0.7 | fold induction at 50 µM [4, 12]: 0.9 | fold induction at 50 µM [5, 13]: 1 | fold induction at 50 µM [6, 14]: 0.9 | fold induction at 50 µM [7, 15]: 1

CC#C[C@]1(O)CC[C@H]2[C@@H]3CCC4=CC(=O)CCC4=C3[C@@H](c3ccc(N(C)C)cc3)C[C@@]21C [Mifepristone]
fold induction at 50 µM [1, 16]: 1.4 | fold induction at 50 µM [2, 17]: 0.7 | fold induction at 50 µM [3, 18]: 0.9 | fold induction at 50 µM [4, 19]: 1.1 | fold induction at 50 µM ([5]; planktonic E. coli, 384-well, […], read-out: AK-based Prestwick Library Screening Results: E. coli (increase in extracellular AK activity)): 1.3 | fold induction at 50 µM [6, 21]: 1 | fold induction at 50 µM [7, 22]: 1.1

Cc1[nH]c(=O)c(C#N)cc1-c1ccncc1 [Milrinone]
fold induction at 50 µM ([1]; planktonic E. cloacae, positive cutoff 3-fold increase, read-out: AK-based Prestwick library screening result, E. cloacae (fold increase in extracellular AK activity)): 0.9 | fold induction at 50 µM ([2]; planktonic S. aureus, positive cutoff 3-fold increase, read-out: AK-based Prestwick library screening result, S. aureus (fold increase in extracellular AK activity)): 0.7 | fold induction at 50 µM ([3]; planktonic K. pneumoniae, positive cutoff 3-fold increase, read-out: AK-based Prestwick library screening result, K. pneumoniae (fold increase in extracellular AK activity)): 0.8 | fold induction at 50 µM ([4]; planktonic A. baumannii, positive cutoff 3-fold increase, read-out: AK-based Prestwick library screening result, A. baumannii (fold increase in extracellular AK activity)): 0.8 | fold induction at 50 µM ([5]; planktonic E. coli, positive cutoff 3-fold increase, read-out: AK-based Prestwick library screening result, E. coli (fold increase in extracellular AK activity)): 0.8 | fold induction at 50 µM ([6]; planktonic P. aeruginosa, positive cutoff 3-fold increase, read-out: AK-based Prestwick library screening result, P. aeruginosa (fold increase in extracellular AK activity)): 0.9 | fold induction at 50 µM ([7]; planktonic E. faecium, positive cutoff 3-fold increase, read-out: AK-based Prestwick library screening result, E. faecium (fold increase in extracellular AK activity)): 0.9

NC(Cn1ccc(=O)c(O)c1)C(=O)O (stereo not shown) [Mimosine]
fold induction at 50 µM [1, 23]: 1.5 | fold induction at 50 µM [2, 24]: 1.4 | fold induction at 50 µM [3, 25]: 0.9 | fold induction at 50 µM [4, 26]: 0.9 | fold induction at 50 µM ([5]; planktonic, cutoff for positive 3-fold increase, read-out: AK-based Prestwick Library Screening Results, E. coli (fold increase in extracellular AK activity)): 1 | fold induction at 50 µM [6, 27]: 1.1 | fold induction at 50 µM [7, 28]: 1

Cc1cc(-c2ccccc2)nnc1NCCN1CCOCC1 [Minaprine dihydrochloride]
fold induction at 50 µM [1, 16]: 1.3 | fold induction at 50 µM [2, 17]: 1 | fold induction at 50 µM [3, 18]: 0.9 | fold induction at 50 µM [4, 19]: 1.3 | fold induction at 50 µM [5, 20]: 1.3 | fold induction at 50 µM [6, 21]: 1.1 | fold induction at 50 µM [7, 22]: 0.8

CN(C)c1ccc(O)c2c1C[C@H]1C[C@H]3[C@H](N(C)C)C(O)=C(C(N)=O)C(=O)[C@@]3(O)C(O)=C1C2=O [Minocycline hydrochloride]
fold induction at 50 µM [1, 16]: 0.9 | fold induction at 50 µM [2, 17]: 6.9 | fold induction at 50 µM [3, 18]: 0.6 | fold induction at 50 µM [4, 19]: 3.9 | fold induction at 50 µM [5, 20]: 2.3 | fold induction at 50 µM [6, 21]: 0.7 | fold induction at 50 µM [7, 22]: 1.1

Nc1cc(N2CCCCC2)nc(N)[n+]1[O-] [Minoxidil]
fold induction at 50 µM [1, 9]: 0.7 | fold induction at 50 µM [2, 10]: 0.7 | fold induction at 50 µM [3, 11]: 0.6 | fold induction at 50 µM [4, 12]: 0.8 | fold induction at 50 µM [5, 13]: 0.6 | fold induction at 50 µM [6, 14]: 0.6 | fold induction at 50 µM [7, 15]: 1

O=C1c2c(O)ccc(O)c2C(=O)c2c(NCCNCCO)ccc(NCCNCCO)c21 [Mitoxantrone dihydrochloride]
fold induction at 50 µM [1, 23]: 1.2 | fold induction at 50 µM [2, 24]: 0.7 | fold induction at 50 µM [3, 25]: 1 | fold induction at 50 µM [4, 26]: 1.5 | fold induction at 50 µM ([5]; planktonic, […], read-out: AK-based Prestwick Library Screening Results, E. coli (fold increase in extracellular AK activity)): 1.5 | fold induction at 50 µM [6, 27]: 0.9 | fold induction at 50 µM [7, 28]: 0.8
